Data published in PMC7933930, “Development of a small molecule that corrects misfolding and increases secretion of Z α1‐antitrypsin” (EMBO Molecular Medicine, 2021).

Assays:
Muscarinic M2 [1] = target: T1, Muscarinic M2 (Homo sapiens, UniProt P08172); assay: Off‐target panel: Muscarinic M2; assay type: cell-based
T1 sequence (P08172 1-466): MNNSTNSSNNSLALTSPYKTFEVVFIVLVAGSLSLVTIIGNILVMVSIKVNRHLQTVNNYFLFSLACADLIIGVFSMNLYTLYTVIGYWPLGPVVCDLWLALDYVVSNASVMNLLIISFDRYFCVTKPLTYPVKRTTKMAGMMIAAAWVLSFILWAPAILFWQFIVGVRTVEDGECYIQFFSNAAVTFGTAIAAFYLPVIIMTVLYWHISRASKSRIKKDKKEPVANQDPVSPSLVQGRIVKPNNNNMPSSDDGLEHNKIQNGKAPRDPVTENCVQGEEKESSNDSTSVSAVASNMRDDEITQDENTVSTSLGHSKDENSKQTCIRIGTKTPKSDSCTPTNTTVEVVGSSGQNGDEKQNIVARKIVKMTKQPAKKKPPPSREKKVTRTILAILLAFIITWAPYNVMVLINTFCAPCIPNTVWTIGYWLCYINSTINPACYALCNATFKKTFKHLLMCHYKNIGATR
Description: (§1) GSK716 selectivity and PK properties were profiled in order to investigate the suitability of GSK716 for progression into in vivo studies and the potential for taking it forward as a clinical candidate for testing in humans. Since GSK716 results in loss of inhibitory activity of α1‐antitrypsin, the effect of the compound was assessed on other closely related serpins. […] Furthermore, there were no off‐target effects in a panel of assays considered predictive of known safety liabilities that precluded further development of GSK716 (Table EV1).

Histamine H1 [2] = target: T2, Histamine H1 (Homo sapiens, UniProt P35367); assay: Off‐target panel: Histamine H1; assay type: cell-based; conditions: Antagonist, read-out: Mean (PXC50)
Description: as §1

Serotonin 5HT2C = target: T3, Serotonin 5HT2C (Homo sapiens, UniProt P28335); assay: Off‐target panel: Serotonin 5HT2C (DRX); assay type: cell-based
T3 sequence (P28335 33-458): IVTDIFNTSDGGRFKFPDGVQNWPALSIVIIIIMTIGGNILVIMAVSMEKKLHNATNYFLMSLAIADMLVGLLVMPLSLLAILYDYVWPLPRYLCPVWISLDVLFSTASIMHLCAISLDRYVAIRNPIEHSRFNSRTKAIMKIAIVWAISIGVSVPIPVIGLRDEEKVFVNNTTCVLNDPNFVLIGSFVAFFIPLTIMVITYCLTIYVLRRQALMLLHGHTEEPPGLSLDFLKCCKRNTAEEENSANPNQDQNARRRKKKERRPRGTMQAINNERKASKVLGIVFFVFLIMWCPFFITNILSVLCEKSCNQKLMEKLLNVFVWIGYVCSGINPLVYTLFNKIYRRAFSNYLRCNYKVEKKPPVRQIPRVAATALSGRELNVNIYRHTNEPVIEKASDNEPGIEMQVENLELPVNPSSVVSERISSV
Description: as §1

Muscarinic M2 [3] = target: T1, Muscarinic M2; assay: Off‐target panel: Muscarinic M2 (DRX); assay type: cell-based
Description: as §1

Histamine H1 [4] = target: T2, Histamine H1; assay: Off‐target panel: Histamine H1 (DRX); assay type: cell-based; conditions: Antagonist, read-out: Mean (PXC50) (converted)
Description: as §1

Muscarinic M1 = target: T4, Muscarinic M1 (Homo sapiens, UniProt P11229); assay: Off‐target panel: Muscarinic M1 (DRX); assay type: cell-based
T4 sequence (P11229 1-460): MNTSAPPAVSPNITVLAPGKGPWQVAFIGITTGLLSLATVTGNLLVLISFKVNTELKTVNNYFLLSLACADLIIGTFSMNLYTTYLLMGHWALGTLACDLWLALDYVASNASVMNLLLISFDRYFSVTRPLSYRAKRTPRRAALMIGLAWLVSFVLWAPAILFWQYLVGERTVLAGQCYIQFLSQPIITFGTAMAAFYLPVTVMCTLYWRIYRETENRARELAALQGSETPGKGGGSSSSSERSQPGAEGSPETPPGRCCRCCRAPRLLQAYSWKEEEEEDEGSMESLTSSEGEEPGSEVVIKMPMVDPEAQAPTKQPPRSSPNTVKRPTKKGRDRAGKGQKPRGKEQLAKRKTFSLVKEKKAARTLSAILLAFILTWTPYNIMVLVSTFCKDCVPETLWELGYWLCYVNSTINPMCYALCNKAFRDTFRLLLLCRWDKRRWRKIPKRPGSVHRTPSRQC
Description: as §1

Bile Salt Export Pump = Bile Salt Export Pump (Homo sapiens, UniProt O95342); assay: Off‐target panel: Bile Salt Export Pump; assay type: in vitro ADME; conditions: Inhibition, read-out: Mean (PXC50) (converted)
Description: as §1

M α1‐antitrypsin = target: T5, M α1‐antitrypsin (Homo sapiens, UniProt P01009); assay: Association kinetics by intrinsic tryptophan fluorescence (stopped flow), M α1‐antitrypsin; assay type: binding
T5 construct: purified from the plasma of M (wild‐type) and Z α1‐antitrypsin homozygotes; from tissue; host or cells: human plasma of M (wild-type) homozygotes
Source text: The shape of the curves and native mass spectrometry (not shown) are consistent with a single high‐affinity compound binding site. No binding of the fluorescent derivative to polymers of Z α1‐antitrypsin was observed, indicating conformational selectivity for the monomeric protein (Fig 1D). The rate of interaction of the compound with the target was monitored through changes in intrinsic tryptophan fluorescence (Dafforn et al, 1999); this property was used to determine the second‐order association rate constants for GSK716 binding to Z (4.1 × 10^4 M^−1 s^−1) and M α1‐antitrypsin (2.1 × 10^2 M^−1 s^−1; Fig 1E and F). […] Therefore, the selectivity of the compound for Z over M α1‐antitrypsin is dominated by the difference in the rate of association rather than dissociation.
Kinetic parameters of GSK716 binding to M, Z, S (Glu264Val) and Baghdad (Ala336Pro) (Haq et al, 2016) α1‐antitrypsin were measured by detecting intrinsic tryptophan fluorescence of the protein (excitation at 280 nm and detection of emission at 320 nm) on a stopped flow apparatus (Applied Photophysics) (Kim & Yu, 1996; Dafforn et al, 1999). […]

Serotonin transporter = Serotonin transporter (Homo sapiens, UniProt P31645); assay: Off‐target panel: Serotonin transporter (DRX); assay type: cell-based
Description: as §1

Kv1.5 = Kv1.5 (Homo sapiens, UniProt P22460); assay: Off‐target panel: Kv1.5; assay type: cell-based; conditions: Blocker, read-out: Mean (PXC50)
Description: as §1

T5 sequence (P01009 25-418): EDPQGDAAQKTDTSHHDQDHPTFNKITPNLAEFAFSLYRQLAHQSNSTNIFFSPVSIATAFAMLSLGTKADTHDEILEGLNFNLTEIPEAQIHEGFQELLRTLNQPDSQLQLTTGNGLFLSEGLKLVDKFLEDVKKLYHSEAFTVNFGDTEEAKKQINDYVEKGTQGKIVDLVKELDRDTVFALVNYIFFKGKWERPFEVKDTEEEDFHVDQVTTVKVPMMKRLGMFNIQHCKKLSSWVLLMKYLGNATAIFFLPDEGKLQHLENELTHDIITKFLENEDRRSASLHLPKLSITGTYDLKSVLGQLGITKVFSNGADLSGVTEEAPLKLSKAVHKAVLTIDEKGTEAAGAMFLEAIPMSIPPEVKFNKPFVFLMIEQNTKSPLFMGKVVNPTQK
T2 sequence (P35367 whole entry): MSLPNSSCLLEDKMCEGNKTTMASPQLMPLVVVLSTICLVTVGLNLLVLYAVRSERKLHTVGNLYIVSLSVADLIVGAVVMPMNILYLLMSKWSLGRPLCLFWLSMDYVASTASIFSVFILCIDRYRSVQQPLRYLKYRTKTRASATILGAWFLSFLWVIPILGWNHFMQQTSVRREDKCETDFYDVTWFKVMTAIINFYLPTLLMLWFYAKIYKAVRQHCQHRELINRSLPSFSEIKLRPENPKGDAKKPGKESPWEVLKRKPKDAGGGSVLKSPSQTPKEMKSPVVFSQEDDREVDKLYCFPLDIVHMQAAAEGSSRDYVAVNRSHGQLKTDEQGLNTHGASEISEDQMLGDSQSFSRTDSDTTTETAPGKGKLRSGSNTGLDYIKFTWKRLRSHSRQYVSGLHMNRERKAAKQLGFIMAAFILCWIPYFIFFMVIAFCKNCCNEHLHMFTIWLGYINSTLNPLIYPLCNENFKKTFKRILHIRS
Chain of Serotonin transporter (P31645 whole entry): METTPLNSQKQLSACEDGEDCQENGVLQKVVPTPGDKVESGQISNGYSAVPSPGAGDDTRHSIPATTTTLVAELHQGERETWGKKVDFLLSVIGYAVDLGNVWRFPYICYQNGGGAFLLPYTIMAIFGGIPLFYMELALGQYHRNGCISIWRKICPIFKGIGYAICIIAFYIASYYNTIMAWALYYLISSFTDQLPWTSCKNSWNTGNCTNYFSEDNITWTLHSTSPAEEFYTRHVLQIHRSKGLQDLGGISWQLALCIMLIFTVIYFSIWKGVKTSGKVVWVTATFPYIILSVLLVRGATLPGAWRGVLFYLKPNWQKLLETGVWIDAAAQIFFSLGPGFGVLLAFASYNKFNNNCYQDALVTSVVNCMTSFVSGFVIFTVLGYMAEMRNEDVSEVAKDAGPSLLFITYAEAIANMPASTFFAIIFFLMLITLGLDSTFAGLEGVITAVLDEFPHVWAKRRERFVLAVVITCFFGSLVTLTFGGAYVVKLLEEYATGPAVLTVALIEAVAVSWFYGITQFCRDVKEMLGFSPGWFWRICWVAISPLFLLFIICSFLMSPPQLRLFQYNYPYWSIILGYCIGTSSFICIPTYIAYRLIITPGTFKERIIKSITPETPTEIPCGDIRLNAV
Chain of Bile Salt Export Pump (O95342 whole entry, species assumed): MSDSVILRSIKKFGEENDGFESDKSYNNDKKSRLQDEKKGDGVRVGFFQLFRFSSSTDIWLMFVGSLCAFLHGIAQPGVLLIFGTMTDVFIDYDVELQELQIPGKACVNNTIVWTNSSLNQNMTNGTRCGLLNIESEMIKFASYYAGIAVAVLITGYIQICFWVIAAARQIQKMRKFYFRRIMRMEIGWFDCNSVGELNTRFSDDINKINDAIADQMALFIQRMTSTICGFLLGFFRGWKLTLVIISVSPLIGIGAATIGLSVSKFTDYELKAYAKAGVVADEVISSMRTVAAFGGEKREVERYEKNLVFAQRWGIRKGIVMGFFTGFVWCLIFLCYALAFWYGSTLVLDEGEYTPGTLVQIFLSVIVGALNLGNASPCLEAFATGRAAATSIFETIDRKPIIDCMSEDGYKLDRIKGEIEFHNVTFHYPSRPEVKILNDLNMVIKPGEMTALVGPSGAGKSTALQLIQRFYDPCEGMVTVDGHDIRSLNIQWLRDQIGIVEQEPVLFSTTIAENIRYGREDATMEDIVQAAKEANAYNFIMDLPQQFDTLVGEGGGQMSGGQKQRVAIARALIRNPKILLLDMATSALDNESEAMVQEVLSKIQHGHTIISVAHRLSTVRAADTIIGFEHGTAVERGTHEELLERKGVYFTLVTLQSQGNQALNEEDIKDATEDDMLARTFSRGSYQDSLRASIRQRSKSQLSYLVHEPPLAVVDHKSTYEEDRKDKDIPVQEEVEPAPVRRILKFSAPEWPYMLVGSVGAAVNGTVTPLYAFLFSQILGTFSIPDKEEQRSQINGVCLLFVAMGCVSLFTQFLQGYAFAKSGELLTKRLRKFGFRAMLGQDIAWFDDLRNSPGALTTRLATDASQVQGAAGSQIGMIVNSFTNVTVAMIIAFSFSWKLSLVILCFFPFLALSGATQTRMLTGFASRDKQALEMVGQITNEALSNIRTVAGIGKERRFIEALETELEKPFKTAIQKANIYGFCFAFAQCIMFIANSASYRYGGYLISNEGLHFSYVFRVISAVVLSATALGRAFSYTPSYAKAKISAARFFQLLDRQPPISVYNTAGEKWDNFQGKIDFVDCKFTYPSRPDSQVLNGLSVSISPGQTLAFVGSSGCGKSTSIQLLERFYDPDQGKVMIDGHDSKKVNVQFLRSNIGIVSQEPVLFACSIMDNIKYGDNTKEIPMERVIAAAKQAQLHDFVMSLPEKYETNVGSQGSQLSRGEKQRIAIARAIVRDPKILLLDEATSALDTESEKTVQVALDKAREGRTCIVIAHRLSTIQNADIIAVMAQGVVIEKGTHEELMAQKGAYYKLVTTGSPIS
Chain of Kv1.5 (P22460 whole entry): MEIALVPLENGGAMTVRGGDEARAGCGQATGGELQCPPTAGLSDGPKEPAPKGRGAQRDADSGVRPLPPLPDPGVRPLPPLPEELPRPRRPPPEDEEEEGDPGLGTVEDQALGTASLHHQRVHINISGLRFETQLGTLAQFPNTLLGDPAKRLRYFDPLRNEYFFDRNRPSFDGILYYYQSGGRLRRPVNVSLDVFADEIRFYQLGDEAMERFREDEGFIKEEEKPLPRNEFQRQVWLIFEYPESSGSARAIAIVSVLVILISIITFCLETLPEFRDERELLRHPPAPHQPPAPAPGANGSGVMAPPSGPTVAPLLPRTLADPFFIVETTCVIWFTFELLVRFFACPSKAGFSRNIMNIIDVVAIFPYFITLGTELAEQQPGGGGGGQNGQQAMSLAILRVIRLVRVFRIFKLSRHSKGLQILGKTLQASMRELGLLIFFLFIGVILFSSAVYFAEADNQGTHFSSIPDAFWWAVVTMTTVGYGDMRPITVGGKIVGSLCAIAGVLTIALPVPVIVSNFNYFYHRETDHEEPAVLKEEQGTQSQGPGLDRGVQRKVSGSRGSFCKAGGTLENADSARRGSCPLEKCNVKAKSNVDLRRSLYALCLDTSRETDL

CCC[C@@H](NC(=O)c1cccc2c1CC(=O)N2)[C@@H](O)c1cccc(F)c1C [GSK716]
EC50 (Muscarinic M2 [1]): > 50.1 µM | IC50 (Muscarinic M2 [1]): > 50.1 µM | IC50 (Histamine H1 [2]): > 25.1 µM | EC50 (Serotonin 5HT2C): > 100 µM | IC50 (Serotonin 5HT2C): 50.1 µM | EC50 (Muscarinic M2 [3]): 5.01 µM | IC50 (Muscarinic M2 [3]): > 50.1 µM | IC50 (Histamine H1 [4]): 10 µM | EC50 (Muscarinic M1): > 50.1 µM | IC50 (Muscarinic M1): > 50.1 µM | IC50 (Bile Salt Export Pump): 100 µM | koff (M α1‐antitrypsin; calculated from association rate constant and affinity, read-out: first‐order dissociation rate constant): 1.6e-05 s⁻¹ | kon (M α1‐antitrypsin; read-out: second‐order association rate constant): 210 M⁻¹ s⁻¹ | IC50 (Serotonin transporter): > 100 µM | IC50 (Kv1.5): > 50.1 µM
